Laboratory results as given in ChEMBL document CHEMBL6120970, “Discovery and Functional Characterization of a Potent, Selective, and Metabolically Stable PROTAC of the Protein Kinases DYRK1A and DYRK1B” (J Med Chem, 2024).
Activity calls are given as the source filed them. The calls are words filed in the database; no cut-off is given here.

What was measured:
[1] = target: T1, Protein cereblon/Dual specificity tyrosine-phosphorylation-regulated kinase 1B (Homo sapiens) (UniProt Q9Y463+Q96SW2); test: PROTAC activity at CRBN/HibiT-tagged DYRK1B in Flp-In-T-REx-293 cells assessed as induction of degradation of DYRK1B by measuring maximum efficacy at 1 uM measured after 24 hrs by NanoBiT luciferase assay relative to control; assay type: cell-based
[2] = target: T2, Protein cereblon/Dual specificity tyrosine-phosphorylation-regulated kinase 1A (Homo sapiens, UniProt Q13627+Q96SW2); test: PROTAC activity at CRBN/HibiT-tagged DYRK1A in Flp-In-T-REx-293 cells assessed as induction of degradation of DYRK1A at 100 to 300 nM by measured after 24 hrs by NanoBiT luciferase assay; assay type: cell-based; details: dose 100-300 nM
[3] = target: T2, Protein cereblon/Dual specificity tyrosine-phosphorylation-regulated kinase 1A; test: PROTAC activity at CRBN/DYRK1A in HEK293 cells assessed as induction of degradation of DYRK1A incubated for 24 hrs; assay type: cell-based
[4] = target: T2, Protein cereblon/Dual specificity tyrosine-phosphorylation-regulated kinase 1A; test: PROTAC activity at CRBN/DYRK1A in HEK293 cells assessed as induction of degradation of DYRK1A at 1 to 10000 nM incubated for 24 hrs in presence of 4-(3-(2-fluoro-4-(4-methylpiperazin-1-yl)phenyl)-2-methyl-3H-imidazo[4,5-b]pyridin-5-yl)pyridin-2-amine; assay type: cell-based; details: dose 1-10000 nM
[5] = target: T2, Protein cereblon/Dual specificity tyrosine-phosphorylation-regulated kinase 1A; test: PROTAC activity at CRBN/DYRK1A in HEK293 cells assessed as induction of degradation of DYRK1A at 1 to 10000 nM incubated for 24 hrs in presence of CaNDY; assay type: cell-based; details: dose 1-10000 nM
[6] = tested on: HEK293; test: Effect on DCAF7 expression in HEK293 cells at 1 to 10000 nM; assay type: functional, cell-based; details: Homo sapiens, dose 1-10000 nM
[7] = target: T2, Protein cereblon/Dual specificity tyrosine-phosphorylation-regulated kinase 1A; test: PROTAC activity at CRBN/DYRK1A in HEK293 cells assessed as induction of degradation of DYRK1A at 100 nM preincubated for 24 to 72 hrs followed by washout and subsequent addition of medium containing compounds measured for 48 hrs; assay type: cell-based; details: time 72-120 hrs
[8] = target: T1, Protein cereblon/Dual specificity tyrosine-phosphorylation-regulated kinase 1B (Homo sapiens); test: PROTAC activity at CRBN/DYRK1B in HEK293 cells overexpressing DYRK1B p65 assessed as induction of degradation of DYRK1B at 1 uM measured after 24 hrs by Western blot analysis; assay type: cell-based
[9] = target: T2, Protein cereblon/Dual specificity tyrosine-phosphorylation-regulated kinase 1A; test: PROTAC activity at CRBN/DYRK1A in HEK293 cells assessed as induction of degradation of DYRK1A at 100 nM pretreated with lenalidomide followed by compound addition and incubated for 8 hrs; assay type: cell-based
[10] = target: T1, Protein cereblon/Dual specificity tyrosine-phosphorylation-regulated kinase 1B (Homo sapiens); test: PROTAC activity at CRBN/DYRK1B in HEK293 cells assessed as induction of degradation of DYRK1B at 100 nM pretreated with lenalidomide followed by compound addition and incubated for 8 hrs; assay type: cell-based
[11] = target: T2, Protein cereblon/Dual specificity tyrosine-phosphorylation-regulated kinase 1A; test: PROTAC activity at CRBN/DYRK1A in HEK293 cells assessed as induction of degradation of DYRK1A at 100 nM pretreated with MLN4924 followed by compound addition and incubated for 8 hrs; assay type: cell-based
[12] = target: T1, Protein cereblon/Dual specificity tyrosine-phosphorylation-regulated kinase 1B (Homo sapiens); test: PROTAC activity at CRBN/DYRK1B in HEK293 cells assessed as induction of degradation of DYRK1B at 100 nM pretreated with MLN4924 followed by compound addition and incubated for 8 hrs; assay type: cell-based
[13] = target: T1, Protein cereblon/Dual specificity tyrosine-phosphorylation-regulated kinase 1B (Homo sapiens); test: PROTAC activity at CRBN/DYRK1B in HEK293 cells assessed as induction of degradation of DYRK1B at 100 nM pretreated with CB-5083 followed by compound addition and incubated for 8 hrs; assay type: cell-based
[14] = target: T2, Protein cereblon/Dual specificity tyrosine-phosphorylation-regulated kinase 1A; test: PROTAC activity at CRBN/DYRK1A in HEK293 cells assessed as induction of degradation of DYRK1A at 100 nM pretreated with bortezomib followed by compound addition and incubated for 8 hrs; assay type: cell-based
[15] = target: T2, Protein cereblon/Dual specificity tyrosine-phosphorylation-regulated kinase 1A; test: PROTAC activity at CRBN/DYRK1A in Flp-In-T-REx-293 cells overexpressing GFP-DYRK1A assessed as initial rate of degradation at 1 uM measured upto 6 hrs by fluorescence based phase contrast microscopy analysis; assay type: cell-based
[16] = target: T1, Protein cereblon/Dual specificity tyrosine-phosphorylation-regulated kinase 1B (Homo sapiens); test: PROTAC activity at CRBN/DYRK1B in Flp-In-T-REx-293 cells overexpressing GFP-DYRK1B assessed as initial rate of degradation at 1 uM measured upto 6 hrs by fluorescence based phase contrast microscopy analysis; assay type: cell-based
[17] = target: T1, Protein cereblon/Dual specificity tyrosine-phosphorylation-regulated kinase 1B (Homo sapiens); test: PROTAC activity at CRBN/DYRK1B in Flp-In-T-REx-293 cells overexpressing GFP-DYRK1B assessed as half life at 1 uM measured upto 6 hrs by fluorescence based phase contrast microscopy analysis; assay type: cell-based
[18] = target: T2, Protein cereblon/Dual specificity tyrosine-phosphorylation-regulated kinase 1A; test: PROTAC activity at CRBN/DYRK1A in human SH-SY5Y cells assessed as induction of degradation of DYRK1A at 100 nM incubated for 24 hrs; assay type: cell-based
[19] = target: T2, Protein cereblon/Dual specificity tyrosine-phosphorylation-regulated kinase 1A; test: PROTAC activity at CRBN/DYRK1A in HEK293 cells expressing GFP-SF3B1 assessed as inhibition of SF3B1 phosphorylation at 10 nM measured for 48 hrs by Western blot analysis; assay type: cell-based
[20] = tested on: SH-SY5Y; test: Cytotoxicity against human SH-SY5Y cells assessed as reduction in cell viability at 100 nM measured upto 96 hrs by real-time cell analysis; assay type: functional, cell-based
[21] = Half life in mouse plasma; assay type: ADME, cell-free
[22] = Metabolic stability in rat liver microsomes assessed as half life; assay type: ADME, Microsome
[23] = target: T2, Protein cereblon/Dual specificity tyrosine-phosphorylation-regulated kinase 1A; test: Competitive binding affinity to CRBN/DYRK1A (unknown origin) assessed as residence time; assay type: protein assay
[24] = target: T2, Protein cereblon/Dual specificity tyrosine-phosphorylation-regulated kinase 1A; test: Competitive binding affinity to CRBN/DYRK1A (unknown origin) assessed as association rate constant Kon; assay type: protein assay
[25] = target: T2, Protein cereblon/Dual specificity tyrosine-phosphorylation-regulated kinase 1A; test: Competitive binding affinity to CRBN/DYRK1A (unknown origin) assessed as dissociation rate constant Koff; assay type: protein assay
[26] = Volume of distribution at steady state in mouse at 1 mg/kg, iv administered as single dose; assay type: ADME, organism-based; details: in vivo, read-out: Vdss
[27] = Half life in mouse at 1 mg/kg, iv administered as single dose; assay type: ADME, organism-based; details: in vivo
[28] = AUC infinity in mouse at 1 mg/kg, iv administered as single dose; assay type: ADME, organism-based; details: in vivo
[29] = Cmax in mouse at 10 mg/kg, ip administered as single dose; assay type: ADME, organism-based; details: in vivo
[30] = Half life in mouse at 10 mg/kg, ip administered as single dose; assay type: ADME, organism-based; details: in vivo
[31] = AUC infinity in mouse at 10 mg/kg, ip administered as single dose; assay type: ADME, organism-based; details: in vivo
[32] = MRT in mouse at 10 mg/kg, ip administered as single dose; assay type: ADME, organism-based; details: in vivo
[33] = Bioavailability in mouse at 10 mg/kg, ip administered as single dose; assay type: ADME, organism-based; details: in vivo
[34] = Tmax in mouse at 10 mg/kg, po administered as single dose; assay type: ADME, organism-based; details: in vivo
[35] = Cmax in mouse at 10 mg/kg, po administered as single dose; assay type: ADME, organism-based; details: in vivo
[36] = AUC last in mouse at 10 mg/kg, po administered as single dose; assay type: ADME, organism-based; details: in vivo
[37] = MRT in mouse at 10 mg/kg, po administered as single dose; assay type: ADME, organism-based; details: in vivo

For `Cc1nc2ccc(-c3ccnc(N)c3)nc2n1-c1ccc(N2CCN(CC#Cc3ccc(N4CCC(C(=O)N5CCC(n6cc(CNc7cccc8c7C(=O)N(C7CCC(=O)NC7=O)C8=O)cn6)CC5)CC4)nc3)CC2)c(F)c1` (configuration not stated), the Emax [1] was 66%, the Activity [2] was “Active” and the DC50 [3] was 12.3 nM. The Activity [4] was “inactive”, the Activity [5] was “inactive” and the Activity [6] was “inactive”. For the same compound, the Activity [7] was “Active”, the Activity [8] was “inactive” and the Activity [9] was “inactive”. The Activity [10] was “inactive”, the Activity [11] was “inactive” and the Activity [12] was “inactive”. The Activity [13] was “inactive”, the Activity [14] was “inactive” and the Activity [15] was 0.74 h⁻¹. For the same compound, the Activity [16] was 1.16 h⁻¹, the T1/2 [17] was 0.6 h and the Activity [18] was “Active”. For the same compound, the Activity [19] was “Active”, the Activity [20] was “Active” and the half-life [21] was 6.97 h. The half-life [22] was 1.64 h, the TIME [23] was 0.383 h and the K [24] was 1.83 10^5/M/s. For the same compound, the K [25] was 7.25 10^-4/s, the Vd [26] was 0.614 L/kg and the half-life [27] was 3.33 h. It also gave an AUC(0-inf) [28] of 2470 ng·h/mL, a Cmax [29] of 8130 ng/mL and a half-life [30] of 4.75 h. It also gave an AUC(0-inf) [31] of 27100 ng·h/mL, an MRT [32] of 5.77 h and a bioavailability [33] of 109%. It also gave a Tmax [34] of 0.5 h, a Cmax [35] of 18.5 ng/mL and an AUC(0-t) [36] of 56 ng·h/mL. The MRT [37] was 2.51 h.
